# Source: patent US20220169598A1, “HALOGENATED PHENYLSULFONAMIDE HYDROXAMIC ACID COMPOUNDS, COMPOSITIONS AND USES THEREOF AS SELECTIVE HDAC6 INHIBITORS” (2681603 ONTARIO INC., priority 2019, published 2022)
# Assays:
# [1] = biological target: T1, HDAC6 (Homo sapiens, UniProt Q9UBN7); assay: Enzyme kinetic parameters, time-based experiments; format: biochemical
# T1 sequence (Q9UBN7 1-1215): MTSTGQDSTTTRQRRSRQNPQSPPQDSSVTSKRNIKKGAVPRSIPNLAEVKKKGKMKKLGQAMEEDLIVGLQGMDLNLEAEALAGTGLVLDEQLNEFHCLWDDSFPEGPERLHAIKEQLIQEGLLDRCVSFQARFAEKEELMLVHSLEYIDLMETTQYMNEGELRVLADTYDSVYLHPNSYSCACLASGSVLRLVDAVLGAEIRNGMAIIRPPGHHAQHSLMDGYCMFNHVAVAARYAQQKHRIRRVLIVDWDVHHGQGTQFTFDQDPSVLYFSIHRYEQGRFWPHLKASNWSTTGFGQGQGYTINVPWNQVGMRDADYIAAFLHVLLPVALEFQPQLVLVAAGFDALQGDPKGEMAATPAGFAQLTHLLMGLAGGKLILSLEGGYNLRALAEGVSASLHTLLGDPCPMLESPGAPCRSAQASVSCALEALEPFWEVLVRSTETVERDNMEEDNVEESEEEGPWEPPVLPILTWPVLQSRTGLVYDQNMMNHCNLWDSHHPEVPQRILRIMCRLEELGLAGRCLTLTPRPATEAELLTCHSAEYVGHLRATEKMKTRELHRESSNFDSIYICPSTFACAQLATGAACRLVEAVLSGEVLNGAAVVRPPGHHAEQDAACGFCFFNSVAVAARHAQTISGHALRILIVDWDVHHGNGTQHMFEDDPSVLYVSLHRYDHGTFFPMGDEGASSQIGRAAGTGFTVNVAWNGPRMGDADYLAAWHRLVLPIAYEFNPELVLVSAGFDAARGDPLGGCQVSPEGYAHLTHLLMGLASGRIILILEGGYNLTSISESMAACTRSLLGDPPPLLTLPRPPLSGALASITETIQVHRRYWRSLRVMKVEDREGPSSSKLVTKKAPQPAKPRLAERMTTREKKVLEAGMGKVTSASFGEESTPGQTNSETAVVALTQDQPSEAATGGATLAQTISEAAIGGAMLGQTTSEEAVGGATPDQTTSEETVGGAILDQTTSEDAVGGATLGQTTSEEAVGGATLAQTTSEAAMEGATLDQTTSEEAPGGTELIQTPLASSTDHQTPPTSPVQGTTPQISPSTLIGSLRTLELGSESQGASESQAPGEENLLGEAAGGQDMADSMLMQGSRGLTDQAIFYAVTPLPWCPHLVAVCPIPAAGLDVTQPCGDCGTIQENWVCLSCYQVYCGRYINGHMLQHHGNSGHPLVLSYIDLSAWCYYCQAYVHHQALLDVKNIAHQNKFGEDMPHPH
# Description: To determine the kinetic parameters for the formation and maintenance of the HDAC6:1-18 complex, several time-based experiments were performed, which are shown in Table 2.
# [2] = biological target: HDAC3 (Homo sapiens, UniProt O15379); assay: in vitro activity-based HDAC assay; format: biochemical; details: human HDAC isoform panel, Table 1
# HDAC3, sequence (O15379 whole entry, canonical isoform): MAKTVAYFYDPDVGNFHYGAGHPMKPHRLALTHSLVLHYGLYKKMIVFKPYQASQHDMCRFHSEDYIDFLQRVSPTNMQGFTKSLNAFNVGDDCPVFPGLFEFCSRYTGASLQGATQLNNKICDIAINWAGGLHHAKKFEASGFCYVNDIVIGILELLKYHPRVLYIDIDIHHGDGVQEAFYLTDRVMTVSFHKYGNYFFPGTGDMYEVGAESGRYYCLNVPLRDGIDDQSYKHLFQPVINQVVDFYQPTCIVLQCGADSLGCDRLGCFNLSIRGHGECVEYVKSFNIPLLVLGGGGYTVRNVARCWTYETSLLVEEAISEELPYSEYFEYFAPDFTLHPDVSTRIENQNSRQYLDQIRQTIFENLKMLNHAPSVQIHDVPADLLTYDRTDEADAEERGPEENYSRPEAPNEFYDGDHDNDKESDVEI
# HDAC3, sequence (Q9Y618 395-489 partner limits assumed): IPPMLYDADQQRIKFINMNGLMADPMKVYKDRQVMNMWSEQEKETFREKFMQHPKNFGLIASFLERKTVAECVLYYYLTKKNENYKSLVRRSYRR
# [3] = biological target: HDAC1 (Homo sapiens, UniProt Q13547); assay: in vitro activity-based HDAC assay; format: biochemical; details: human HDAC isoform panel, Table 1
# HDAC1, sequence (Q13547 whole entry, canonical isoform): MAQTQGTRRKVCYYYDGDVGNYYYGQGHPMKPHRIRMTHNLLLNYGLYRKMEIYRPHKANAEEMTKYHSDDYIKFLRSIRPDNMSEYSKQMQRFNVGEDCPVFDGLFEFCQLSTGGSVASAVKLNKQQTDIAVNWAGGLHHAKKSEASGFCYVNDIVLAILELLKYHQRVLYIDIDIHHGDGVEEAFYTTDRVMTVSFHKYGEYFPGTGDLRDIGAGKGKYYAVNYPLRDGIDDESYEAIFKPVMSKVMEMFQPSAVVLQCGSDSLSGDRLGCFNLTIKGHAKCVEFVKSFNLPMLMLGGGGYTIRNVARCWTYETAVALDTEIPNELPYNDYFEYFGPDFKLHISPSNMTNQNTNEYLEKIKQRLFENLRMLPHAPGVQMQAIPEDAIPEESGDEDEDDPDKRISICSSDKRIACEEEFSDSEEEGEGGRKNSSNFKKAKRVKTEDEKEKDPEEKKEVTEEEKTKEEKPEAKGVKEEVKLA
# [4] = test system: HeLa cells; assay: Immunofluorescence analysis of α-tubulin and histone H3 acetylation; format: cell-based; details: 6 h treatment
# Text: Similar analysis is shown for exemplary compound I-34 in FIG. 19.
IC50 [3] [nM],Compound,Ki ([1]; HDAC6) [nM],"IC50 ([1]; HDAC6, no preincubation) [nM]",IC50 [2] [nM],effect on α-tubulin acetylation (immunofluorescence) [4]
–,"O=C(NO)c1ccc(CN(Cc2cccnc2)S(=O)(=O)c2cc(F)c(F)c(F)c2F)cc1 [Compound I-18, N-hydroxy-4-((2,3,4,5-tetrafluoro-N-(pyridin-3-ylmethyl)phenylsulfonamido)methyl)benzamide]",1.4,4,373,–
> 1000,"O=C(NO)c1ccc(CN(C2CC2)S(=O)(=O)c2cc(F)c(F)c(F)c2F)cc1 [Compound I-13, 4-((N-cyclopropyl-2,3,4,5-tetrafluorophenylsulfonamido)methyl)-N-hydroxybenzamide]",–,–,–,substantially strong effect on tubulin acetylation
